Key:
[1] = target: Mitogen-activated protein kinase 11 (Homo sapiens) (UniProt Q15759); assay: Selectivity interaction (KinomeScan (DiscoverX)) EUB0000655a MAPK11; conditions: at 10 µM
[2] = target: Serine/threonine-protein kinase MRCK beta (Homo sapiens) (UniProt Q9Y5S2); assay: Selectivity interaction (ProQinase) EUB0000171b CDC42BPB
[3] = target: Calcium/calmodulin-dependent protein kinase type II subunit beta (Homo sapiens) (UniProt Q13554); assay: Selectivity interaction (ProQinase) EUB0000171b CAMK2B
Sequence of Calcium/calmodulin-dependent protein kinase type II subunit beta (Homo sapiens) (Q13554 whole entry): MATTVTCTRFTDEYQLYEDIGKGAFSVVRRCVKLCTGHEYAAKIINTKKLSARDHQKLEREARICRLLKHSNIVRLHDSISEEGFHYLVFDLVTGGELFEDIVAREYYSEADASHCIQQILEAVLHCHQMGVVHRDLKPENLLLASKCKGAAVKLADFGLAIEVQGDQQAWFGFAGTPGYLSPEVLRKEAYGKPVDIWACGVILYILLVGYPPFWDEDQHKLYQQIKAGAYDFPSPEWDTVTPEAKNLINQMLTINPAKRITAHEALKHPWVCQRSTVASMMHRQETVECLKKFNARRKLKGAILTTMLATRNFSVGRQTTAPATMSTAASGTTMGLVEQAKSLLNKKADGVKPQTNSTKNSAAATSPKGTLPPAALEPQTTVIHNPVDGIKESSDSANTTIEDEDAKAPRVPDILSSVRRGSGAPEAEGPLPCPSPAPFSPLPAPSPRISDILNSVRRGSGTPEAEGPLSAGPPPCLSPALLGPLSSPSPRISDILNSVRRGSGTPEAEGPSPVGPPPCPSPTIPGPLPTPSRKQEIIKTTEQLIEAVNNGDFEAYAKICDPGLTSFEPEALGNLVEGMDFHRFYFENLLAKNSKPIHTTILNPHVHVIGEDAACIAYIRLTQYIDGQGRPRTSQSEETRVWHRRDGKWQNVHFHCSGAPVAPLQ

[4] = target: Dual specificity protein kinase CLK1 (Homo sapiens, UniProt P49759); assay: Selectivity interaction (KinomeScan (DiscoverX)) EUB0000666a CLK1; conditions: at 10 µM
Sequence of Dual specificity protein kinase CLK1 (P49759 whole entry, looked up): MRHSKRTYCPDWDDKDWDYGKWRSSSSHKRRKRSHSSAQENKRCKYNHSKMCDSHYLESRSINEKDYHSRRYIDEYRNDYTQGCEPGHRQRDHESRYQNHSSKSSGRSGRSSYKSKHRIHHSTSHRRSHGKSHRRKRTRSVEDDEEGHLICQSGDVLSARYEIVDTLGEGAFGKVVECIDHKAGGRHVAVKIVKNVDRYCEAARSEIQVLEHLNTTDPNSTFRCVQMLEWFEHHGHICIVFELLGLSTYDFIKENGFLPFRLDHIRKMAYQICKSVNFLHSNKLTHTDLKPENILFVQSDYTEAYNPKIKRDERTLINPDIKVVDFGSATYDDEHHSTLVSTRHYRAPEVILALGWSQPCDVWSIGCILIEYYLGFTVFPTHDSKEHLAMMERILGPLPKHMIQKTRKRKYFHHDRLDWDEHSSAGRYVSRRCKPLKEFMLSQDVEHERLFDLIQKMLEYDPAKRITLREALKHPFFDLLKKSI

[5] = target: T1, Serine/threonine-protein kinase Sgk1 (Homo sapiens) (UniProt O00141); assay: Selectivity interaction (KinomeScan (DiscoverX)) EUB0000666a SGK1; conditions: at 10 µM
T1 sequence (whole entry): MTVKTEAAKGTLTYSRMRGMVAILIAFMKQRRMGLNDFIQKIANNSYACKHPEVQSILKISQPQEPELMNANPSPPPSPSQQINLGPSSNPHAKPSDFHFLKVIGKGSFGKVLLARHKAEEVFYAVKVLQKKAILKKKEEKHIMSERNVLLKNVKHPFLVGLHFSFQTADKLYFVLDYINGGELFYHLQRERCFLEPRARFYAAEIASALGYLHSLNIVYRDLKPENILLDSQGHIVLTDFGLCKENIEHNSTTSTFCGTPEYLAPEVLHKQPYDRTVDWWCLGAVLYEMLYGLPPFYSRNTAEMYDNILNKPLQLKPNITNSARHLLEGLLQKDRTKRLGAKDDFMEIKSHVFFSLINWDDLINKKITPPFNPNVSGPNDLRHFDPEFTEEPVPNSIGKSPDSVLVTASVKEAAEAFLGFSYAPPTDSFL

[6] = target: Protein-tyrosine kinase 6 (Homo sapiens, UniProt Q13882); assay: Selectivity interaction (KinaseProfiler screening (Millipore)) EUB0000601a PTK6; conditions: at 3 µM
Sequence of Protein-tyrosine kinase 6 (Q13882 whole entry, looked up): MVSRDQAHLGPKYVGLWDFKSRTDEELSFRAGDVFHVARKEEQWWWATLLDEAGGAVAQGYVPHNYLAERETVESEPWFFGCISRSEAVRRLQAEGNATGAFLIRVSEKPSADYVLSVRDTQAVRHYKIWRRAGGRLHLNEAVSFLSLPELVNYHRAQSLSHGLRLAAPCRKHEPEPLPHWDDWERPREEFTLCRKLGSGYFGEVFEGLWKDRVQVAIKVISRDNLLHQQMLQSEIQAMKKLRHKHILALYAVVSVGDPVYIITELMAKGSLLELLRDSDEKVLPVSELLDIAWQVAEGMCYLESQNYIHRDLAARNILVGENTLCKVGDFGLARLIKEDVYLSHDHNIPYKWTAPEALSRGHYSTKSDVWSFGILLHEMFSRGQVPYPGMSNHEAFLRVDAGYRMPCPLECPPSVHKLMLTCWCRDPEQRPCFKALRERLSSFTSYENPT

[7] = target: Non-receptor tyrosine-protein kinase TYK2 (Homo sapiens, UniProt P29597); assay: Selectivity interaction (KinomeScan (DiscoverX)) EUB0000607a TYK2; conditions: at 10 µM
Sequence of Non-receptor tyrosine-protein kinase TYK2 (P29597 whole entry): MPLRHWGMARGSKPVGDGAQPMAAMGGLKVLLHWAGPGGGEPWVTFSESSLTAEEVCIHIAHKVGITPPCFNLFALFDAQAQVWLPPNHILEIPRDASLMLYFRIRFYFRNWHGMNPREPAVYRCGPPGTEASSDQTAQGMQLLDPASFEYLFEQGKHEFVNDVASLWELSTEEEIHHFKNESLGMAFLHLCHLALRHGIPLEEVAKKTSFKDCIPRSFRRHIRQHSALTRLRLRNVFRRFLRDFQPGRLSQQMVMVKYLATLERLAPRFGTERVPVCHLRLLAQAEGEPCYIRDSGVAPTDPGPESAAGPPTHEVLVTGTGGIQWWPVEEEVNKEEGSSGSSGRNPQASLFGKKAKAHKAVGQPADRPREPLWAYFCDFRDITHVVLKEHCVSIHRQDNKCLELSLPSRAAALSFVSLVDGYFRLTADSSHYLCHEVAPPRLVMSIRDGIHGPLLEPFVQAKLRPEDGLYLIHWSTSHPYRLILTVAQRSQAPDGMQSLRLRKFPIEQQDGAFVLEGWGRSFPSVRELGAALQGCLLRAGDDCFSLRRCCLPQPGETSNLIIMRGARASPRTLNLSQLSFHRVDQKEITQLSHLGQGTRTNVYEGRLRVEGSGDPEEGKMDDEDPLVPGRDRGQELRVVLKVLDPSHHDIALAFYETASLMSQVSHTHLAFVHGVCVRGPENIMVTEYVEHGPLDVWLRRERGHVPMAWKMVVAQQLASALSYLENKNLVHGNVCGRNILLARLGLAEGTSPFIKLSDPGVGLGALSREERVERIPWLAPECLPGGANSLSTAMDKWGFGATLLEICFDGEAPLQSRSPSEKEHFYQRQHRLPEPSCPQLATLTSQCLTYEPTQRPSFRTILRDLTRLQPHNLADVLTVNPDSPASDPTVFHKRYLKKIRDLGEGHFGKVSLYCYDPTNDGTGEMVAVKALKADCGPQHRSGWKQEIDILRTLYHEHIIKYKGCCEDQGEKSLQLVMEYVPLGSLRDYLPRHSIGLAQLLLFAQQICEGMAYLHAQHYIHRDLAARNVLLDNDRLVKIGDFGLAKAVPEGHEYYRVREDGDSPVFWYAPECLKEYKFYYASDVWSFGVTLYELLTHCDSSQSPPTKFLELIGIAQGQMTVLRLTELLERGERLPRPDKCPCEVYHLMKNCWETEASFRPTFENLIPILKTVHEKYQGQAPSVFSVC

[8] = test system: Tyrosine-protein kinase ABL1 (Homo sapiens), P00519 [T315I]; assay: Selectivity interaction (KinomeScan (DiscoverX)) EUB0001049a ABL1; conditions: at 1 µM
[9] = target: RAC-beta serine/threonine-protein kinase (Homo sapiens) (UniProt P31751); assay: Selectivity interaction (KinomeScan (DiscoverX)) EUB0000045b AKT2
Sequence of RAC-beta serine/threonine-protein kinase (Homo sapiens) (P31751 whole entry): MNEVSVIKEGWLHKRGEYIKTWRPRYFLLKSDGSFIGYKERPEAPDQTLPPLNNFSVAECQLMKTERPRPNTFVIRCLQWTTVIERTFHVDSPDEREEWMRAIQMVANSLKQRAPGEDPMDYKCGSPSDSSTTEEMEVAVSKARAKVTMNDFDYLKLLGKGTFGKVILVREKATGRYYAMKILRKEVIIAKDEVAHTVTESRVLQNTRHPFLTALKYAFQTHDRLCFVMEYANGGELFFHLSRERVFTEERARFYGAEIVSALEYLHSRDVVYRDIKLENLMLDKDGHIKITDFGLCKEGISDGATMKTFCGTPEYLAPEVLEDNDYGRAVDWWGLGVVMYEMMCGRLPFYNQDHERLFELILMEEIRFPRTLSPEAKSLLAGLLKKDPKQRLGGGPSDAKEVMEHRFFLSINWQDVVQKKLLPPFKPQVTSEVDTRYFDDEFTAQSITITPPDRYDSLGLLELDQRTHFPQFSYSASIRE

[10] = target: T2, Serine/threonine-protein kinase RIO3 (Homo sapiens) (UniProt O14730); assay: Selectivity interaction (KinomeScan (DiscoverX)) EUB0000045b RIOK3
T2 sequence (whole entry): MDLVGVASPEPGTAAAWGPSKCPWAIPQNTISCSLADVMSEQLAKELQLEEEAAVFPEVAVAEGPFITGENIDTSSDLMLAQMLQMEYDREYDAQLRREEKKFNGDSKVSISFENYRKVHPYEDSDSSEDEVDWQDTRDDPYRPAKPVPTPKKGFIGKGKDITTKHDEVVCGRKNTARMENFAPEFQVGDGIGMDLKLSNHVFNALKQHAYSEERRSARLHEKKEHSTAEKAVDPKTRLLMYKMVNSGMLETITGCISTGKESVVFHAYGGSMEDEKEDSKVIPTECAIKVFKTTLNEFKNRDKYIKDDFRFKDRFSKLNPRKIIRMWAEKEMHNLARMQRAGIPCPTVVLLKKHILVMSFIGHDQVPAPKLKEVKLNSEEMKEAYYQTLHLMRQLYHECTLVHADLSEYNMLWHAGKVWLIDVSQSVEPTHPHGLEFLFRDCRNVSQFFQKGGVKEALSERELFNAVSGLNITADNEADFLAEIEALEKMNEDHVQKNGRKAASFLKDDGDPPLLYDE

[11] = target: Cyclin-dependent kinase 3 (Homo sapiens) (UniProt Q00526); assay: Selectivity interaction (KinomeScan (DiscoverX)) EUB0001619a CDK3; conditions: at 1 µM
[12] = target: T3, Serine/threonine-protein kinase Nek1 (Homo sapiens) (UniProt Q96PY6); assay: Selectivity interaction (ActivX KiNativ screen (ex vivo kinase selectivity in human PBMCs)) EUB0001619a NEK1; assay type: cell-based; conditions: PBMC, at 1 µM
T3 sequence (whole entry): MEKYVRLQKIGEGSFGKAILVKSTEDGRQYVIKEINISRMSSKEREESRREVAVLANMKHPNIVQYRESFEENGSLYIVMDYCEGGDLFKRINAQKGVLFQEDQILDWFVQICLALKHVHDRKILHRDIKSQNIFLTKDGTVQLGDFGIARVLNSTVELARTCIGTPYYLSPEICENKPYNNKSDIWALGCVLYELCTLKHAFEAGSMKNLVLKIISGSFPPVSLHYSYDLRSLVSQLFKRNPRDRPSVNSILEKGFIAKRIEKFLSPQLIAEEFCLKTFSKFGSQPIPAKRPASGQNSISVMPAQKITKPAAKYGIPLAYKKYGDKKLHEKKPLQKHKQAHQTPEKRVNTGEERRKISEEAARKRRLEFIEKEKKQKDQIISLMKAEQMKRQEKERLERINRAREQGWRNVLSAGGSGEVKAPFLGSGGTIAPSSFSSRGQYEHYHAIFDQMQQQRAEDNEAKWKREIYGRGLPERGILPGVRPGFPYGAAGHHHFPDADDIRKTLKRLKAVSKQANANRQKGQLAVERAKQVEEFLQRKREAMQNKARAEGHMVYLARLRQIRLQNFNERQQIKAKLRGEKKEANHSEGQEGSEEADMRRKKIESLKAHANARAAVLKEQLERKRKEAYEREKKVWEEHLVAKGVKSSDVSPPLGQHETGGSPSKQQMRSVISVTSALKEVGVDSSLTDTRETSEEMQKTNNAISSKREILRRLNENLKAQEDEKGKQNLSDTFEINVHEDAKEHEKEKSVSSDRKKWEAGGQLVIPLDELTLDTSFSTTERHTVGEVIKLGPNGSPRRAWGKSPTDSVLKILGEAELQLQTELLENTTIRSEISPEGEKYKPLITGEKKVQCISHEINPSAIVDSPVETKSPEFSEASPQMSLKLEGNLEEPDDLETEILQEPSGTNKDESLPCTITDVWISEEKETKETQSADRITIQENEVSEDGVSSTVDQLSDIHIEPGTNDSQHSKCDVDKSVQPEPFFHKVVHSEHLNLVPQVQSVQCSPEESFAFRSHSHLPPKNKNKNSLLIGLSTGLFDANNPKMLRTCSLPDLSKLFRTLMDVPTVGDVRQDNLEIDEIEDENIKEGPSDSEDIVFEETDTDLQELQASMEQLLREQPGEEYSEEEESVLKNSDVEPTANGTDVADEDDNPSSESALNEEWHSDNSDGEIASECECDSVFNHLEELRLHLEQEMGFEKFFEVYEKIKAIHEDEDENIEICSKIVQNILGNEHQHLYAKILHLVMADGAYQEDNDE

Sequence of Serine/threonine-protein kinase MRCK beta (Homo sapiens) (Q9Y5S2 whole entry): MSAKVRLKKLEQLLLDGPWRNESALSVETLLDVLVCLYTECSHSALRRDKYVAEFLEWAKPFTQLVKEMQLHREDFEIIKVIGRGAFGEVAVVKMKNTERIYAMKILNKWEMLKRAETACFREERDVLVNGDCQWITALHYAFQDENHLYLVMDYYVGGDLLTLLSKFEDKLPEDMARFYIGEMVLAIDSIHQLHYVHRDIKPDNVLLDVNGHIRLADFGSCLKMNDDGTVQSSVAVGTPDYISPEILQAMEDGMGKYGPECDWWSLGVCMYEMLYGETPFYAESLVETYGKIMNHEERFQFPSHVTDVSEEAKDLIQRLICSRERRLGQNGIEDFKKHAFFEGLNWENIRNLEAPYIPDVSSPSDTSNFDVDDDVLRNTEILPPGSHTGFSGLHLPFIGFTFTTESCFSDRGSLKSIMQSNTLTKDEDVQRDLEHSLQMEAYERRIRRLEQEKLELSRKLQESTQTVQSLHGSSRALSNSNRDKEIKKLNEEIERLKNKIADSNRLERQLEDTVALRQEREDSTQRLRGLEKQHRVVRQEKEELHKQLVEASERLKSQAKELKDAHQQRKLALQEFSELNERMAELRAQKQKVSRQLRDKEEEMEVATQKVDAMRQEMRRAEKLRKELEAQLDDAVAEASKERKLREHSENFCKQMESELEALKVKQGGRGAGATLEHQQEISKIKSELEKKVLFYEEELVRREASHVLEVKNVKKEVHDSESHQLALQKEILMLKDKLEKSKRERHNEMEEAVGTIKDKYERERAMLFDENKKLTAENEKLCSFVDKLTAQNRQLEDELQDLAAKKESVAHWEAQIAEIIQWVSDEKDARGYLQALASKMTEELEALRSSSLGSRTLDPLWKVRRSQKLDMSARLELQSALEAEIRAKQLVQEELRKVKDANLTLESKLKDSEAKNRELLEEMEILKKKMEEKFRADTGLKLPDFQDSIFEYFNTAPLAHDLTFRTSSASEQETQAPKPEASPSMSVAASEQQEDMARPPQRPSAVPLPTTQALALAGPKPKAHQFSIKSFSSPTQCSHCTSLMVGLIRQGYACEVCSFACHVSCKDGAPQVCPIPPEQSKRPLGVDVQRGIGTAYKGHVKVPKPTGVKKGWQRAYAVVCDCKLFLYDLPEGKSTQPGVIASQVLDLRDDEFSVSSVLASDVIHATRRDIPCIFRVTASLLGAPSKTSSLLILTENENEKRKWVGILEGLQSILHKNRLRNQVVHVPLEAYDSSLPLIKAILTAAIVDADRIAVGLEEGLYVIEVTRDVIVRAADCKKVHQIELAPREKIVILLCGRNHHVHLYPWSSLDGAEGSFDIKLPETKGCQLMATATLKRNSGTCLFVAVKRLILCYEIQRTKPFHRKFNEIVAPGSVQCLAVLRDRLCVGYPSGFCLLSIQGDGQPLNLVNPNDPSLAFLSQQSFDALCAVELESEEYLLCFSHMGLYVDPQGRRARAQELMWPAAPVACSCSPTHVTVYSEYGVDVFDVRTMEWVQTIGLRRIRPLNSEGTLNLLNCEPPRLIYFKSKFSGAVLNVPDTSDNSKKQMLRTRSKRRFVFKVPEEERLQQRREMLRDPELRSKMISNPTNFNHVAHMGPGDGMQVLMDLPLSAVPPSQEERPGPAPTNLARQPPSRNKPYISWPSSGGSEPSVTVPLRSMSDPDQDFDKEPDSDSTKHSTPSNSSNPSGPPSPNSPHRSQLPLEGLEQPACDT

CN(C)CCOc1ccc(-c2nc(-c3ccncc3)c(-c3ccc4c(c3)CC/C4=N\O)[nH]2)cc1
% of control [1]: 91%

C=CC(=O)Nc1cccc(C(=O)Nc2ccc(Nc3cc(-c4[nH]c(SC)nc4C)ccn3)cc2)c1
% of control ([2]; at 1 µM): 89%
% of control ([2]; at 5 µM): 82%
% of control ([3]; at 1 µM): 97%
% of control ([3]; at 5 µM): 79%

O=C(NOC[C@H](O)CO)c1ccc(F)c(F)c1Nc1ccc(I)cc1F
% of control [4]: 95%
% of control [5]: 100%

CCc1cc(Nc2nccc(-c3c(-c4ccc(OC)c(C(=O)Nc5c(F)cccc5F)c4)nc4ccccn34)n2)c(OC)cc1N1CCC(N2CCN(S(C)(=O)=O)CC2)CC1
% of inhibition [6]: 38%

CNC(=O)Nc1ccc(-c2nc(N3CC4CCC(C3)O4)c3cnn(C4CCC5(CC4)OCCO5)c3n2)cc1
% of control [7]: 100%

COc1cc(Nc2nc(C)cc(-c3cnn4nc(OC)ccc34)n2)cc(C(F)(F)F)c1
% of control [8]: 100%

C=CC(=O)Nc1cc(-n2c(=O)ccc3cnc4ccc(-c5ccc(NS(C)(=O)=O)cc5)cc4c32)ccc1C
% of control ([9]; at 1 µM): 100%
% of control ([9]; at 10 µM): 100%
% of control ([10]; at 1 µM): 55%
% of control ([10]; at 10 µM): 60%

N#Cc1cccc(-c2c[nH]c3ncnc(N4CCOCC4)c23)c1
% of control [11]: 93%
% of inhibition [12]: -2%

From ChEMBL document CHEMBL5465560, “Selectivity Literature for EUbOPEN Chemogenomic Library” (2024)
